Measured values published in PubChem BioAssay (NCI).
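Test compounds were applied to cells in 96-well plates for 48 hours at 5 doses. The concentration for full growth arrest is given as TGI.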

Key:
Experiment in all cases: NCI-60 cell line screen, 48 h
SN12C renal = tested on: SN12C renal
DU-145 prostate = tested on: DU-145 prostate
SK-OV-3 ovarian = tested on: SK-OV-3 ovarian
EKVX NSCLC = tested on: EKVX NSCLC
MDA-N = tested on: MDA-N
RPMI-8226 leukemia = tested on: RPMI-8226 leukemia
CCRF-CEM leukemia = tested on: CCRF-CEM leukemia
OVCAR-3 ovarian = tested on: OVCAR-3 ovarian
MALME-3M melanoma = tested on: MALME-3M melanoma
HL-60(TB) leukemia = tested on: HL-60(TB) leukemia
TK-10 renal = tested on: TK-10 renal

Compound: CC(C)c1cc(CN(C)C)c(O)c(C(C)(C)C)c1
- TGI (SN12C renal): 33.1 µM
- TGI (DU-145 prostate): > 100 µM
- TGI (SK-OV-3 ovarian): > 100 µM
- TGI (EKVX NSCLC): 64.4 µM
- TGI (MDA-N): 73.3 µM
- TGI (RPMI-8226 leukemia): 32.3 µM
- TGI (CCRF-CEM leukemia): 30 µM
- TGI (OVCAR-3 ovarian): 31.2 µM
- TGI (MALME-3M melanoma): 76.2 µM
- TGI (HL-60(TB) leukemia): 15.1 µM
- TGI (TK-10 renal): > 100 µM

Compound: CN(CCCCN1CCCC1)CCCN(C)C(=O)Cc1ccc(Cl)c(Cl)c1
- TGI (SN12C renal): 37.8 µM
- TGI (DU-145 prostate): > 100 µM
- TGI (SK-OV-3 ovarian): > 100 µM
- TGI (EKVX NSCLC): 37.6 µM
- TGI (MDA-N): 15.5 µM
- TGI (RPMI-8226 leukemia): 25.9 µM
- TGI (CCRF-CEM leukemia): 20.9 µM
- TGI (OVCAR-3 ovarian): 62.4 µM
- TGI (MALME-3M melanoma): 34.7 µM
- TGI (HL-60(TB) leukemia): 34.1 µM
- TGI (TK-10 renal): 33.7 µM

Compound: COc1c(C)c2c(c(=O)c3c(C)cccc3n2C)c2c1c(=O)c1c(C)cccc1n2C
- TGI (SN12C renal): > 10 µM
- TGI (DU-145 prostate): > 10 µM
- TGI (SK-OV-3 ovarian): > 10 µM
- TGI (EKVX NSCLC): > 10 µM
- TGI (MDA-N): > 10 µM
- TGI (RPMI-8226 leukemia): > 10 µM
- TGI (CCRF-CEM leukemia): > 10 µM
- TGI (OVCAR-3 ovarian): > 10 µM
- TGI (MALME-3M melanoma): > 10 µM
- TGI (HL-60(TB) leukemia): > 10 µM
- TGI (TK-10 renal): > 10 µM

Compound: CN(C)c1ccc(/C=c2/c3ccccc3n3nc4ccccc4c23)cc1
- TGI (SN12C renal): > 100 µM
- TGI (DU-145 prostate): > 100 µM
- TGI (SK-OV-3 ovarian): > 100 µM
- TGI (EKVX NSCLC): > 100 µM
- TGI (MDA-N): 33.6 µM
- TGI (RPMI-8226 leukemia): 39.1 µM
- TGI (CCRF-CEM leukemia): 76.5 µM
- TGI (OVCAR-3 ovarian): > 100 µM
- TGI (MALME-3M melanoma): > 100 µM
- TGI (HL-60(TB) leukemia): > 100 µM
- TGI (TK-10 renal): > 100 µM

Compound: [O-][n+]1onc2c1CCC(=N\O)/C2=N/Nc1ccccc1
- TGI (SN12C renal): > 100 µM
- TGI (DU-145 prostate): > 100 µM
- TGI (SK-OV-3 ovarian): > 100 µM
- TGI (EKVX NSCLC): > 100 µM
- TGI (MDA-N): > 100 µM
- TGI (RPMI-8226 leukemia): > 100 µM
- TGI (CCRF-CEM leukemia): > 100 µM
- TGI (OVCAR-3 ovarian): > 100 µM
- TGI (MALME-3M melanoma): > 100 µM
- TGI (HL-60(TB) leukemia): > 100 µM
- TGI (TK-10 renal): > 100 µM

Compound: Oc1cc(Br)cc2cccnc12
- TGI (SN12C renal): > 55.6 µM
- TGI (DU-145 prostate): > 100 µM
- TGI (SK-OV-3 ovarian): 79.9 µM
- TGI (EKVX NSCLC): 16.2 µM
- TGI (MDA-N): 97 µM
- TGI (RPMI-8226 leukemia): 5.68 µM
- TGI (CCRF-CEM leukemia): 4.61 µM
- TGI (OVCAR-3 ovarian): 13.7 µM
- TGI (MALME-3M melanoma): 47 µM
- TGI (HL-60(TB) leukemia): 0.82 µM
- TGI (TK-10 renal): > 100 µM

Compound: COc1cc(C)c(/C=C/C(=O)N2C(=O)OC[C@@H]2c2ccccc2)c(C)c1
- TGI (SN12C renal): > 100 µM
- TGI (DU-145 prostate): > 100 µM
- TGI (SK-OV-3 ovarian): > 100 µM
- TGI (EKVX NSCLC): > 100 µM
- TGI (MDA-N): > 100 µM
- TGI (RPMI-8226 leukemia): > 100 µM
- TGI (CCRF-CEM leukemia): > 100 µM
- TGI (OVCAR-3 ovarian): > 100 µM
- TGI (MALME-3M melanoma): > 100 µM
- TGI (HL-60(TB) leukemia): > 100 µM
- TGI (TK-10 renal): > 100 µM

Compound: C=CC(c1ccccc1)[C@@]1(OC(C)=O)C(=O)C(=O)OC1C1COC(C)(C)O1 (stereo partly specified)
- TGI (SN12C renal): 21.7 µM
- TGI (DU-145 prostate): 54.2 µM
- TGI (SK-OV-3 ovarian): 32.3 µM
- TGI (EKVX NSCLC): 35.3 µM
- TGI (MDA-N): 24.1 µM
- TGI (RPMI-8226 leukemia): 56.4 µM
- TGI (CCRF-CEM leukemia): > 19.6 µM
- TGI (OVCAR-3 ovarian): 24.8 µM
- TGI (MALME-3M melanoma): 34.3 µM
- TGI (HL-60(TB) leukemia): 5.86 µM
- TGI (TK-10 renal): 27.1 µM

Compound: CC(C)CC1C(=O)NCCC(NC(=O)C(N)Cc2ccc(O)cc2)C(=O)NC(Cc2ccccc2)C(=O)NC(Cc2ccccc2)NC1=O (stereo unspecified)
- TGI (SN12C renal): > 100 µM
- TGI (DU-145 prostate): > 100 µM
- TGI (SK-OV-3 ovarian): > 100 µM
- TGI (EKVX NSCLC): > 100 µM
- TGI (MDA-N): > 100 µM
- TGI (RPMI-8226 leukemia): > 100 µM
- TGI (CCRF-CEM leukemia): > 100 µM
- TGI (OVCAR-3 ovarian): > 100 µM
- TGI (MALME-3M melanoma): > 100 µM
- TGI (HL-60(TB) leukemia): > 100 µM
- TGI (TK-10 renal): > 100 µM

Compound: Cc1nc2ccc(S(=O)(=O)Nc3ccccc3)cc2c(=O)n1NC(=O)CNc1ccccc1
- TGI (SN12C renal): > 100 µM
- TGI (DU-145 prostate): > 100 µM
- TGI (SK-OV-3 ovarian): > 100 µM
- TGI (EKVX NSCLC): > 100 µM
- TGI (MDA-N): > 100 µM
- TGI (RPMI-8226 leukemia): > 100 µM
- TGI (CCRF-CEM leukemia): > 100 µM
- TGI (OVCAR-3 ovarian): > 100 µM
- TGI (MALME-3M melanoma): > 100 µM
- TGI (HL-60(TB) leukemia): > 100 µM
- TGI (TK-10 renal): > 100 µM

Compound: COc1cc(CNc2ccc3nc4n(c(=O)c3c2)CCCCC4)cc(OC)c1OC
- TGI (SN12C renal): > 100 µM
- TGI (DU-145 prostate): > 100 µM
- TGI (SK-OV-3 ovarian): > 100 µM
- TGI (EKVX NSCLC): > 100 µM
- TGI (MDA-N): > 100 µM
- TGI (RPMI-8226 leukemia): > 100 µM
- TGI (CCRF-CEM leukemia): > 100 µM
- TGI (OVCAR-3 ovarian): > 100 µM
- TGI (MALME-3M melanoma): > 100 µM
- TGI (HL-60(TB) leukemia): > 100 µM
- TGI (TK-10 renal): > 100 µM

Compound: CC(=O)OC(C)C1C2=C(C(=O)CC1(C)O)C(=O)c1c(ccc(-c3ccc4c(c3O)C(=O)C3=C(C4=O)C(C(C)OC(C)=O)C(C)(O)CC3=O)c1O)C2=O (stereo unspecified)
- TGI (SN12C renal): 6.58 µM
- TGI (DU-145 prostate): 18.3 µM
- TGI (SK-OV-3 ovarian): 23.6 µM
- TGI (EKVX NSCLC): 26.1 µM
- TGI (MDA-N): 7.34 µM
- TGI (RPMI-8226 leukemia): > 100 µM
- TGI (CCRF-CEM leukemia): > 100 µM
- TGI (OVCAR-3 ovarian): 5.29 µM
- TGI (MALME-3M melanoma): 2.12 µM
- TGI (HL-60(TB) leukemia): > 100 µM
- TGI (TK-10 renal): 5.41 µM

Compound: Cc1nc2sc3ccccc3n2c(=O)c1N=Nc1ccc(Br)cc1
- TGI (SN12C renal): > 100 µM
- TGI (DU-145 prostate): > 100 µM
- TGI (SK-OV-3 ovarian): > 100 µM
- TGI (EKVX NSCLC): > 100 µM
- TGI (MDA-N): > 100 µM
- TGI (RPMI-8226 leukemia): > 100 µM
- TGI (CCRF-CEM leukemia): > 100 µM
- TGI (OVCAR-3 ovarian): > 100 µM
- TGI (MALME-3M melanoma): > 100 µM
- TGI (HL-60(TB) leukemia): > 100 µM
- TGI (TK-10 renal): > 100 µM

Compound: CS/C1=C(\c2ccc(C)cc2)N(c2ccccc2)C(=O)C(=O)N(c2ccccc2)/C(c2ccc(C)cc2)=C(/SC)SS1
- TGI (SN12C renal): > 100 µM
- TGI (DU-145 prostate): > 100 µM
- TGI (EKVX NSCLC): > 100 µM
- TGI (MDA-N): > 100 µM
- TGI (RPMI-8226 leukemia): > 100 µM
- TGI (CCRF-CEM leukemia): > 100 µM
- TGI (OVCAR-3 ovarian): > 100 µM
- TGI (MALME-3M melanoma): > 100 µM
- TGI (HL-60(TB) leukemia): > 100 µM
- TGI (TK-10 renal): > 100 µM

Compound: COc1cc(OC)c2c(=O)cc(-c3ccccc3F)[nH]c2c1
- TGI (SN12C renal): > 100 µM
- TGI (DU-145 prostate): > 100 µM
- TGI (SK-OV-3 ovarian): > 100 µM
- TGI (EKVX NSCLC): > 100 µM
- TGI (MDA-N): > 100 µM
- TGI (RPMI-8226 leukemia): > 100 µM
- TGI (CCRF-CEM leukemia): > 100 µM
- TGI (OVCAR-3 ovarian): > 100 µM
- TGI (MALME-3M melanoma): > 100 µM
- TGI (HL-60(TB) leukemia): > 100 µM
- TGI (TK-10 renal): 84.4 µM

Compound: Cc1ccc2c(=O)c3cccc(CC(=O)O)c3[nH]c2c1C
- TGI (SN12C renal): > 100 µM
- TGI (DU-145 prostate): > 100 µM
- TGI (SK-OV-3 ovarian): > 100 µM
- TGI (EKVX NSCLC): > 100 µM
- TGI (MDA-N): > 100 µM
- TGI (RPMI-8226 leukemia): > 100 µM
- TGI (CCRF-CEM leukemia): > 100 µM
- TGI (OVCAR-3 ovarian): > 100 µM
- TGI (MALME-3M melanoma): > 100 µM
- TGI (HL-60(TB) leukemia): > 100 µM
- TGI (TK-10 renal): > 100 µM

Compound: NNC(=O)c1ccccc1NC(=O)/C(=C/c1ccccc1O)NC(=O)c1ccccc1
- TGI (SN12C renal): > 100 µM
- TGI (DU-145 prostate): > 100 µM
- TGI (SK-OV-3 ovarian): > 100 µM
- TGI (EKVX NSCLC): > 100 µM
- TGI (MDA-N): > 100 µM
- TGI (RPMI-8226 leukemia): > 100 µM
- TGI (CCRF-CEM leukemia): > 100 µM
- TGI (MALME-3M melanoma): > 100 µM
- TGI (HL-60(TB) leukemia): > 100 µM
- TGI (TK-10 renal): > 100 µM

Compound: O=C(CCc1ccccc1)ON1C(=S)NC(c2ccccc2)(c2ccccc2)C1=S
- TGI (SN12C renal): > 100 µM
- TGI (DU-145 prostate): > 100 µM
- TGI (SK-OV-3 ovarian): > 100 µM
- TGI (EKVX NSCLC): > 100 µM
- TGI (MDA-N): > 100 µM
- TGI (RPMI-8226 leukemia): 80.4 µM
- TGI (CCRF-CEM leukemia): 93.4 µM
- TGI (OVCAR-3 ovarian): > 100 µM
- TGI (MALME-3M melanoma): 71.5 µM
- TGI (HL-60(TB) leukemia): 61.2 µM
- TGI (TK-10 renal): > 100 µM
